According to patent US4432906A, “Inhibitors of SRS-synthesis” (Hoffmann-La Roche Inc., priority 1981, dated 1984):

Tested on: SRS-A synthesis in rat peritoneal cells
Assay: Inhibition of the in vitro synthesis of SRS-A in rat peritoneal cells (ionophore A23187 challenge; SRS-A quantitated by guinea pig ileum bioassay)
Type: cell-based, rat (male Sprague-Dawley)
Conditions: for IC50: concentration of test drug which inhibits the synthesis of SRS-A by 50%, from plot of mean percent inhibition versus drug concentration; for inhibition at 10 µM: inhibition of SRS-A synthesis, 10 μM test drug, 10 min preincubation at 37° C., challenge with 5×10^-7 M ionophore A23187, mean percent inhibition
From the text: Inhibition of the In Vitro Synthesis of SRS-A in Rat Peritoneal Cells
To study the effect of drugs on SRS-A synthesis in rat peritoneal cells, these cells (including mast cells, monocytes, eosinophils and neutrophils)were isolated from male Sprague-Dawley rats (Charles River Laboratories) weighing 180-220 g by the lavage procedure described by Herzig, D. G. and Dusner, E. J. Journal of Pharmacology and Experimental Therapeutics, 194, 457-460 (1975) with the exception that Hanks balanced salt solution used in these experiments was adjusted to pH 6.9 with 5% (V/V) of 0.1 M aqueous phosphate buffer and contained 50 mg/ml sodium heparin. After removal from the peritoneal cavity of rats, the cells were subsequently isolated by centrifugation at 400×gravity for 10 minutes at 4° C. and resuspended to a concentration of about 2,000,000 cells per ml in Hanks buffer.
Samples for evaluation were prepared by adding various concentrations of test drugs to 2 ml aliquots of resuspended cells in Hanks buffer. The 2 ml samples used for control contained 2 ml aliquots of resuspended cells in Hanks buffer without drugs. All of the above samples (2 ml final volume) were preincubated at 37° C. for 10 minutes in the presence of varying concentrations of test drug prior to challenge with 5×10^-7 M ionophore A23187. This ionophore is disclosed in Burka and Flower, Br. J. Pharmacology 65: 35-41 (1979). Antibiotic A 23187 was used as a probe for the study of calcium and function in biological systems. After ionophore challenge, SRS-A was synthesized in the samples by the cells for 10 minutes (at 37° C.) after which this synthesis was terminated by placing the samples in a boiling water bath for 10 minutes followed by centrifugation at 2,000×g (10 minutes) at 4° C. to remove coagulated protein and cellular debris. The SRS-A present in the resulting supernatants was quantitated by a bioassay using a guinea pig ileum as described in Orange, and Austen, Adv. Immunol, 10:105-144 (1969). For this bioassay, a 1.5 cm segment of ileum was removed from animals weighing 300 to 400 g and resuspended in an organ bath containing 10 ml of Tyrodes solution with 10^-6 M atropine sulfate and 10^-6 M pyrilamine maleate. The bath was maintained at 37° C. and aerated with a mixture of 95% O2 and 5% CO2. The concentration of SRS-A in the experimental samples was determined by a comparison of isotonic contraction responses elicited by the samples with those obtained with varying amounts of an SRS-A standard procedures of Orange, R. R. and Austen, K. F. Adv. Immunol. 10:105-144 (1969) against histamine (1 unit of SRS-A being that amount which gives a contractile response similar to that of […]). […]
The mean percent inhibition [formula] at each concentration of the various test drugs was calculated. […]

Structure (SMILES)	IC50 [µM]	inhibition at 10 µM [%]
CCCCC/C=C\C/C=C\C(C)(C)/C=C\C/C=C\CCCC(=O)O [(all Z)-10,10-dimethyleicosa-5,8,11,14-tetraenoic acid]	1 to 3	99 ± 1
CCCCCCCC/C=C\C(C)(C)/C=C\C/C=C\CCCC(=O)O [(all Z)-10,10-dimethyl-5,8,11-eicosatrienoic acid]	< 10	100
